Test systems include LOX IMVI melanoma; OVCAR-5 ovarian; SK-OV-3 ovarian; OVCAR-3 ovarian; HOP-62 NSCLC; EKVX NSCLC; OVCAR-4 ovarian; IGROV1 ovarian.
Common to all, as to test: growth of human tumour cells (NCI), 48 h

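Test compounds were applied to cells in 96-well plates for 48 hours at 5 doses. The concentration for 50% growth inhibition is given as GI50. Definition used: TGI = concentration required for complete inhibition of growth.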 A value given as a limit tells only on which side of the number the result lay.

For `C[C@H](c1ccc(Cl)cc1[N+](=O)[O-])N1C(=O)c2cc(I)ccc2NC(=O)[C@H]1c1ccc(Cl)cc1`, the GI50 is > 100 µM in the assay on LOX IMVI melanoma; > 100 µM with OVCAR-5 ovarian; > 100 µM in the assay on SK-OV-3 ovarian; 8.83 µM with OVCAR-3 ovarian; > 100 µM with HOP-62 NSCLC; 4.98 µM in the assay with EKVX NSCLC. The GI50 was 7.08 µM in the assay on OVCAR-4 ovarian and 8.21 µM in the assay on IGROV1 ovarian. In addition, the TGI in the assay on LOX IMVI melanoma, with OVCAR-5 ovarian, in the assay with SK-OV-3 ovarian, in the assay with OVCAR-3 ovarian, in the assay with HOP-62 NSCLC and with EKVX NSCLC was > 100 µM throughout. Besides, the TGI with OVCAR-4 ovarian and in the assay with IGROV1 ovarian was > 100 µM throughout.
With `CC1SC(c2cccc(Cl)c2)N(NC(=O)C(O)c2ccccc2)C1=O` (stereo not given), the GI50 in the assay with LOX IMVI melanoma, with OVCAR-5 ovarian, in the assay on SK-OV-3 ovarian, in the assay on OVCAR-3 ovarian, in the assay on HOP-62 NSCLC and in the assay on EKVX NSCLC was > 100 µM throughout. The GI50 in the assay on OVCAR-4 ovarian is 75.4 µM; with IGROV1 ovarian, 68.7 µM. The TGI in the assay with LOX IMVI melanoma, in the assay with OVCAR-5 ovarian, with SK-OV-3 ovarian, with OVCAR-3 ovarian, with HOP-62 NSCLC and with EKVX NSCLC was > 100 µM each time. Moreover, the TGI with OVCAR-4 ovarian and in the assay with IGROV1 ovarian was > 100 µM each time.
Turning to `CN1CCN(Cc2ccc(NC(=O)c3cncc(C#Cc4ncc5ccccn45)c3)cc2C(F)(F)F)CC1`, the GI50 in the assay with LOX IMVI melanoma is 1.27 µM; in the assay on OVCAR-5 ovarian, 1.76 µM; in the assay with SK-OV-3 ovarian, 1.33 µM; in the assay on OVCAR-3 ovarian it was 2.43 µM; with HOP-62 NSCLC it was 1.45 µM; in the assay on EKVX NSCLC, 1.3 µM. The results for the GI50 in the assay on OVCAR-4 ovarian and in the assay with IGROV1 ovarian were 0.531 µM and 0.892 µM, respectively. The TGI with LOX IMVI melanoma came out at 4.55 µM; in the assay on OVCAR-5 ovarian, 8.41 µM; with SK-OV-3 ovarian, 4.58 µM; in the assay with OVCAR-3 ovarian it was 8.21 µM; with HOP-62 NSCLC, 4.77 µM; with EKVX NSCLC, 5.54 µM. In addition, the values for the TGI with OVCAR-4 ovarian and in the assay on IGROV1 ovarian were 4.57 µM and 4.07 µM, respectively.
In the case of `CCCCCCCCCCCCCCCC(N)c1ccccc1` (stereo not given), the GI50 with LOX IMVI melanoma was 1.52 µM; with OVCAR-5 ovarian it was 1.49 µM; in the assay on SK-OV-3 ovarian, 1.58 µM; in the assay with OVCAR-3 ovarian it was 1.64 µM; in the assay with HOP-62 NSCLC it was 1.23 µM; in the assay with EKVX NSCLC, 1.59 µM. Further, the GI50 was 1.67 µM in the assay with OVCAR-4 ovarian and 1.78 µM in the assay on IGROV1 ovarian. Besides, the TGI came to 3 µM in the assay with LOX IMVI melanoma; 3.1 µM in the assay with OVCAR-5 ovarian; 2.92 µM in the assay on SK-OV-3 ovarian; 3.08 µM in the assay on OVCAR-3 ovarian; 2.62 µM in the assay with HOP-62 NSCLC; 3.01 µM in the assay on EKVX NSCLC. Also, the values for the TGI with OVCAR-4 ovarian and in the assay with IGROV1 ovarian were 3.45 µM and 3.44 µM, respectively.
For the compound `COc1ccc(OC)c(/C=C/C(=O)c2ccc3cc(OC)ccc3c2)c1`, the GI50 is 48 µM in the assay with LOX IMVI melanoma; > 11.6 µM with OVCAR-5 ovarian; 1.04 µM with SK-OV-3 ovarian; 1.64 µM in the assay with OVCAR-3 ovarian; 9.71 µM in the assay with HOP-62 NSCLC; > 12.3 µM with EKVX NSCLC. Also, in the assay with OVCAR-4 ovarian, the GI50 is 10.8 µM. Moreover, the TGI with LOX IMVI melanoma was > 50 µM; in the assay on OVCAR-5 ovarian, > 50 µM; with SK-OV-3 ovarian it was 2.37 µM; in the assay with OVCAR-3 ovarian, 11.9 µM; with HOP-62 NSCLC it was > 50 µM; in the assay on EKVX NSCLC it was > 50 µM. Besides, the TGI is > 50 µM with OVCAR-4 ovarian and > 14.5 µM in the assay on IGROV1 ovarian.
In the case of `O=C1C=C(OCC=C(Cl)Cl)C(=O)c2ccccc21`, the GI50 in the assay on LOX IMVI melanoma was 1.09 µM; with OVCAR-5 ovarian it was 8.92 µM; in the assay on SK-OV-3 ovarian, > 100 µM; in the assay with OVCAR-3 ovarian, 1.9 µM; with HOP-62 NSCLC it was 54.9 µM; in the assay on EKVX NSCLC, 3.33 µM. The figures for the GI50 in the assay on OVCAR-4 ovarian and in the assay on IGROV1 ovarian were 1.61 µM and 4.04 µM, respectively. For the same compound, the TGI in the assay with LOX IMVI melanoma is 4.35 µM; in the assay on OVCAR-5 ovarian, > 82.1 µM; with SK-OV-3 ovarian it was > 100 µM; in the assay with OVCAR-3 ovarian, 4.13 µM; with HOP-62 NSCLC it was > 100 µM; in the assay on EKVX NSCLC it was 28.2 µM. The figures for the TGI with OVCAR-4 ovarian and in the assay on IGROV1 ovarian were 3 µM and 23.5 µM, respectively.
Take `CSc1nc(-c2cccc(NC(=O)CCl)c2)c(C#N)c(=O)n1C`: the GI50 with LOX IMVI melanoma is 0.0184 µM; with OVCAR-5 ovarian it was 1.83 µM; with SK-OV-3 ovarian, 12.5 µM; with OVCAR-3 ovarian, 1.7 µM; with HOP-62 NSCLC, 2.16 µM; in the assay on EKVX NSCLC, 1.88 µM. Besides, the GI50 with OVCAR-4 ovarian is 1.43 µM; in the assay on IGROV1 ovarian, 0.248 µM. The TGI stood at 0.0342 µM in the assay on LOX IMVI melanoma; 3.38 µM in the assay on OVCAR-5 ovarian; 48.1 µM in the assay with SK-OV-3 ovarian; 3.2 µM in the assay with OVCAR-3 ovarian; 4.87 µM with HOP-62 NSCLC; 3.65 µM in the assay on EKVX NSCLC. Besides, the TGI in the assay on OVCAR-4 ovarian came to 3.32 µM; in the assay on IGROV1 ovarian it was 1.41 µM.
Regarding `CC(=O)Nc1cc(CN2CCCCC2)c(O)c2ncccc12`, the TGI with LOX IMVI melanoma was 84.8 µM; with OVCAR-5 ovarian, > 100 µM; with SK-OV-3 ovarian, > 100 µM; with OVCAR-3 ovarian, 96.9 µM; in the assay on HOP-62 NSCLC, > 100 µM; in the assay on EKVX NSCLC it was > 100 µM. For the same compound, the TGI in the assay with OVCAR-4 ovarian and with IGROV1 ovarian was > 100 µM each time.
`CN1CCN(Cc2ccc(NC(=O)c3[nH]ncc3Nc3cc(OC4CCCC4)ncn3)cc2)CC1`: the GI50 is 1.63 µM in the assay with LOX IMVI melanoma; 2.79 µM in the assay with OVCAR-5 ovarian; 1.28 µM with SK-OV-3 ovarian; 1.77 µM with OVCAR-3 ovarian; 3.7 µM in the assay on HOP-62 NSCLC; 3.86 µM in the assay with EKVX NSCLC. Moreover, the results for the GI50 in the assay on OVCAR-4 ovarian and with IGROV1 ovarian were 2.07 µM and 1.75 µM, respectively. Also, the TGI with LOX IMVI melanoma was 3.83 µM; with OVCAR-5 ovarian it was 7.12 µM; in the assay on SK-OV-3 ovarian it was 4.36 µM; in the assay on OVCAR-3 ovarian, 3.69 µM; with HOP-62 NSCLC, 13.2 µM; in the assay on EKVX NSCLC, 18.6 µM. The TGI in the assay with OVCAR-4 ovarian was determined as 7.18 µM; with IGROV1 ovarian it was 10.8 µM.

These data come from PubChem BioAssay (NCI).
